Where two headings read alike, the source gives them in different places.
Columns and labels:
[1] = tested on: P-388; assay: Inhibition of cell growth by counting cells, P-388; format: cell-based, mouse; details: Mus musculus, P388, 72 h; three days of incubation; read-out: IC50 (molar) P-388
Outline: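 IC50 is the sample concentration halving growth, taken from dose-response curves of cell counts (Coulter counter, duplicate wells) relative to drug-free cultures. P-388 (DBA/2 mouse lymphoid neoplasm) cells plated at 1×10^4 per well in EMEM with 5% FCS plus test sample.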

[2] = tested on: A-549; assay: Inhibition of cell growth by counting cells, A-549; format: cell-based, human; details: Homo sapiens, A549, 72 h; three days of incubation; read-out: IC50 (molar) A-549
Outline: (§1)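 1×10^4 cells/well, EMEM 5% FCS + test sample at several concs, duplicates; 3 d, 37° C, 5% CO2, humidified. Trypsinize, Coulter count; % growth vs untreated wells; IC50 from dose-response curve.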

[3] = tested on: HT-29; assay: Inhibition of cell growth by counting cells, HT-29; format: cell-based, human; details: Homo sapiens, HT-29, 72 h; three days of incubation; read-out: IC50 (molar) HT-29
Outline: as §1

[4] = tested on: MEL-28; assay: Inhibition of cell growth by counting cells, MEL-28; format: cell-based, human; details: Homo sapiens, SK-MEL-28, 72 h; three days of incubation; read-out: IC50 (molar) MEL-28
Outline: as §1

[5] = tested on: DU-145; assay: Inhibition of cell growth by counting cells, DU-145; format: cell-based, human; details: Homo sapiens, DU-145, 72 h, read-out: IC50 (molar) DU-145
Experimental: 1°.—Inhibition of Cell Growth by Counting Cells.
This form of the assay employs 24 well multidishes of 16 mm diameter (Bergeron, 1984; Schroeder, 1981). The tumor cell lines employed are: P-388 (ATCC CCL 46), suspension culture of a lymphoid neoplasm from a DBA/2 mouse; A-549 (ATCC CCL 185), monolayer culture of a human lung carcinoma; HT-29 (ATCC HTB-38), monolayer culture of a human colon carcinoma; MEL-28 (ATCC HTB-72), monolayer culture of a human melanoma and DU-145 (ATCC HTB-81), monolayer culture of a human prostate carcinoma.
Cells were maintained, in logarithmic phase of growth in Eagle's Minimum Essential Medium, with Earle's Balanced Salts, with non-essential amino acids, with 2.0 mM L-Glutamine, without sodium bicarbonate (EMEM/neaa), supplemented with 10% Fetal Calf Serum (FCS), 10^−2 M. sodium bicarbonate and 0.1 U/l penicillin G+0.1 g/l streptomycin sulfate. For the experiments, cells are harvested from subconfluent cultures using trypsin and resuspended in fresh medium before plating.
A-549, HT-29, MEL-28 and DU-145 cells were seeded into 16 mm diameter wells at 1×10^4 cells per well in 1 ml aliquots of EMEM 5% FCS containing different concentrations of the sample to be tested. A separate set of cultures without drug was seeded as control of growth, to ensure that cells remained in exponential phase of growth. All determinations are carrying out in duplicate. After three days of incubation at 37° C., 5% CO2 in a 98% humid atmosphere cells were stained with 0.1% crystal violet. An approximately IC50 was determined by comparing the growth in wells with drug to the growth in wells control.
For quantifying the activity, after the incubation time, cells are trypsinized and counted in a Coulter Counter ZM. All counts (net cells per well), represent the average of duplicate wells. % G, percent of growth relative to cultures without drug. The results of these assays are used to generate dose-response curves from which more precise IC50 values are determined (sample concentration which produces 50% cell growth inhibition).
Obtained results may predict the usefulness of a certain drug as a potential cancer treatment. For this technique, compounds which show IC50 values smaller than 1 μg/ml are selected to continue with further studies. IC50's data allow to predict that not only could a drug be cystostatic, but also it could have a potential in terms of tumor reduction.

SMILES	IC50 [1]	IC50 [2]	IC50 [3]	IC50 [4]	IC50 ([5]; three days of incubation)	IC50 [5]
COc1cc2c(cc1O)CCN[C@]21CS[C@@H]2c3c(OC(C)=O)c(C)c4c(c3[C@H](COC1=O)N1C2[C@H]2c3c(cc(C)c(OC)c3OC(=O)OC(C)(C)C)C[C@@H]([C@@H]1C#N)N2C)OCO4 (stereo partly shown) [Compound 47]	1.15 nM	1.15 nM	1.15 nM	1.15 nM	1.15 nM	–
COc1cc2c(cc1OC(=O)/C=C/c1ccccc1)CCN[C@]21CS[C@@H]2c3c(OC(C)=O)c(C)c4c(c3[C@H](COC1=O)N1C2[C@H]2c3c(cc(C)c(OC)c3OC(=O)OC(C)(C)C)C[C@@H]([C@@H]1C#N)N2C)OCO4 (stereo partly shown) [Compound 49]	0.999 nM	0.999 nM	0.999 nM	0.999 nM	–	0.999 nM
C=CCOc1cc2c(cc1OC)[C@@]1(CS[C@@H]3c4c(O)c(C)c5c(c4[C@H](COC1=O)N1C3[C@H]3c4c(cc(C)c(OC)c4OCC=C)C[C@@H]([C@@H]1C#N)N3C)OCO5)NCC2 (stereo partly shown) [Compound 50]	124 nM	124 nM	124 nM	124 nM	124 nM	–
CCCC(=O)Oc1cc2c(cc1OC)[C@@]1(CS[C@@H]3c4c(OC(C)=O)c(C)c5c(c4[C@H](COC1=O)N1C3[C@H]3c4c(cc(C)c(OC)c4O)C[C@@H]([C@@H]1O)N3C)OCO5)NCC2 (stereo partly shown) [Compound 58]	0.12 nM	0.12 nM	0.12 nM	0.12 nM	0.12 nM	–
CCCCCCCCCCCCCCCC(=O)Oc1cc2c(cc1OC)[C@@]1(CS[C@@H]3c4c(OC(C)=O)c(C)c5c(c4[C@H](COC1=O)N1C3[C@H]3c4c(cc(C)c(OC)c4O)C[C@@H]([C@@H]1O)N3C)OCO5)NCC2 (stereo partly shown) [Compound 60]	10 nM	5 nM	5 nM	5 nM	5 nM	–
C=CCOC(=O)NC(CSCC1c2ccccc2-c2ccccc21)C(=O)Oc1cc2c(cc1OC)[C@@]1(CS[C@@H]3c4c(OC(C)=O)c(C)c5c(c4[C@H](COC1=O)N1C3[C@H]3c4c(cc(C)c(OC)c4O)C[C@@H]([C@@H]1O)N3C)OCO5)NCC2 (stereo partly shown) [Compound 62]	0.888 nM	0.888 nM	0.888 nM	0.888 nM	0.888 nM	–
COc1cc2c(cc1OC(=O)OC(C)(C)C)CCN[C@]21CS[C@@H]2c3c(OC(C)=O)c(C)c4c(c3[C@H](COC1=O)N1C2[C@H]2c3c(cc(C)c(OC)c3O)C[C@@H]([C@@H]1O)N2C)OCO4 (stereo partly shown) [Compound 66]	0.116 nM	0.116 nM	0.116 nM	0.116 nM	0.116 nM	–
CCCOc1cc2c(cc1OC)[C@@]1(CS[C@@H]3c4c(OC(C)=O)c(C)c5c(c4[C@H](COC1=O)N1C3[C@H]3c4c(cc(C)c(OC)c4O)C[C@@H]([C@@H]1O)N3C)OCO5)NCC2 (stereo partly shown) [Compound 69]	0.125 nM	0.623 nM	0.623 nM	0.623 nM	0.623 nM	–
COc1cc2c(cc1OCc1ccccc1)CCN[C@]21CS[C@@H]2c3c(OC(C)=O)c(C)c4c(c3[C@H](COC1=O)N1C2[C@H]2c3c(cc(C)c(OC)c3O)C[C@@H]([C@@H]1O)N2C)OCO4 (stereo partly shown) [Compound 71]	0.588 nM	0.588 nM	0.588 nM	0.588 nM	0.588 nM	–
CCCCCCCCCCCCCCCC(=O)Oc1cc2c(cc1OC)[C@@]1(CS[C@@H]3c4c(OC(C)=O)c(C)c5c(c4[C@H](COC1=O)N1C3[C@H]3c4c(cc(C)c(OC)c4OC(=O)CCCCCCCCCCCCCCC)C[C@@H]([C@@H]1O)N3C)OCO5)NCC2 (stereo partly shown) [Compound 83]	80.8 nM	80.8 nM	80.8 nM	80.8 nM	80.8 nM	–
CCOc1cc2c(cc1OC)[C@@]1(CS[C@@H]3c4c(OC(C)=O)c(C)c5c(c4[C@H](COC1=O)N1C3[C@H]3c4c(cc(C)c(OC)c4OCC)C[C@@H]([C@@H]1O)N3C)OCO5)NCC2 (stereo partly shown) [Compound 88]	12.2 nM	12.2 nM	12.2 nM	12.2 nM	12.2 nM	–
CCCOc1cc2c(cc1OC)[C@@]1(CS[C@@H]3c4c(OC(C)=O)c(C)c5c(c4[C@H](COC1=O)N1C3[C@H]3c4c(cc(C)c(OC)c4OCCC)C[C@@H]([C@@H]1O)N3C)OCO5)NCC2 (stereo partly shown) [Compound 89]	591 nM	591 nM	591 nM	591 nM	591 nM	–
C=CCOc1cc2c(cc1OC)[C@@]1(CS[C@@H]3c4c(OC(C)=O)c(C)c5c(c4[C@H](COC1=O)N1C3[C@H]3c4c(cc(C)c(OC)c4OCC=C)C[C@@H]([C@@H]1O)N3C)OCO5)NCC2 (stereo partly shown) [Compound 90]	11.9 nM	11.9 nM	11.9 nM	11.9 nM	11.9 nM	–
COc1cc2c(cc1OCc1ccccc1)CCN[C@]21CS[C@@H]2c3c(OC(C)=O)c(C)c4c(c3[C@H](COC1=O)N1C2[C@H]2c3c(cc(C)c(OC)c3OCc3ccccc3)C[C@@H]([C@@H]1O)N2C)OCO4 (stereo partly shown) [Compound 91]	106 nM	106 nM	106 nM	106 nM	106 nM	–
COc1cc2c(cc1OC(=O)OC(C)(C)C)CCN[C@]21CS[C@@H]2c3c(O)c(C)c4c(c3[C@H](COC1=O)N1C2[C@H]2c3c(cc(C)c(OC)c3O)C[C@@H]([C@@H]1C#N)N2C)OCO4 (stereo partly shown) [Compound 106]	1.21 nM	1.21 nM	1.21 nM	1.21 nM	1.21 nM	–
COc1cc2c(cc1OC(=O)OC(C)(C)C)CCN[C@]21CS[C@@H]2c3c(OC(=O)C(F)(F)F)c(C)c4c(c3[C@H](COC1=O)N1C2[C@H]2c3c(cc(C)c(OC)c3O)C[C@@H]([C@@H]1C#N)N2C)OCO4 (stereo partly shown) [Compound 107]	1.08 nM	1.08 nM	1.08 nM	1.08 nM	1.08 nM	–
CCCC(=O)Oc1c(C)c2c(c3c1[C@H]1SC[C@]4(NCCc5cc(OC(=O)OC(C)(C)C)c(OC)cc54)C(=O)OC[C@@H]3N3C1[C@H]1c4c(cc(C)c(OC)c4O)C[C@@H]([C@@H]3C#N)N1C)OCO2 (stereo partly shown) [Compound 111]	1.11 nM	1.11 nM	1.11 nM	1.11 nM	–	1.11 nM
COc1cc2c(cc1OC(=O)OC(C)(C)C)CCN[C@]21CS[C@@H]2c3c(OC(=O)/C=C/c4ccccc4)c(C)c4c(c3[C@H](COC1=O)N1C2[C@H]2c3c(cc(C)c(OC)c3O)C[C@@H]([C@@H]1C#N)N2C)OCO4 (stereo partly shown) [Compound 113]	10.4 nM	10.4 nM	10.4 nM	10.4 nM	10.4 nM	–
CCCCCCCC(=O)Oc1c(C)c2c(c3c1[C@H]1SC[C@]4(NCCc5cc(OC(=O)OC(C)(C)C)c(OC)cc54)C(=O)OC[C@@H]3N3C1[C@H]1c4c(cc(C)c(OC)c4O)C[C@@H]([C@@H]3C#N)N1C)OCO2 (stereo partly shown) [Compound 119]	10.5 nM	10.5 nM	10.5 nM	10.5 nM	10.5 nM	–
CCCCCCCC(=O)Oc1c(C)c2c(c3c1[C@H]1SC[C@]4(NCCc5cc(OC(=O)OC(C)(C)C)c(OC)cc54)C(=O)OC[C@@H]3N3C1[C@H]1c4c(cc(C)c(OC)c4OC(=O)CCCCCCC)C[C@@H]([C@@H]3C#N)N1C)OCO2 (stereo partly shown) [Compound 120]	463 nM	463 nM	463 nM	463 nM	463 nM	–

Reference: patent publication US7759345B2, “Antitumoral derivatives of ET-743” (priority 2001, dated 2010)
